PMC11040653, “Fluorescent carbazole-derived α-amino acids: structural mimics of tryptophan” (Chemical Science, 2024)
No end group written: not given here. 13e = not defined here

Tests used:
[1] = ethanol; standard reference; ref 9 (supplement); cited from earlier work
Method: page 24: 5. Photophysical Data for a-Amino Acids 13a–e Absorption and emission data were recorded using the following instruments: 1. UV-Vis spectra were recorded on a Perkin Elmer Lamda 25 instrument. Fluorescence spectra were recorded on a Shimadzu RF-5301PC spectrofluorophotometer. Emission data were measured using excitation and emission bandpass filters of 3 nm. 2. Both UV-Vis spectra and fluorescence spectra were recorded on a Horiba Duetta Fluorescence and Absorbance spectrometer. Absorbance spectra were recorded with an integration time of 0.05 s, and a band pass of 5 nm. Fluorescence ...

[2] = UV-Vis absorption and fluorescence emission spectra of amino acids 13a–e; type: physicochemical; settings: for λ Abs / λ Em / λ Em (second wavelength): 5 μM; for λ Abs: UV-Vis; for λ Em / λ Em (second wavelength): fluorescence
Method: (§1) Next, the photophysical properties of amino acids 13a–13e were measured.[22,23] As it was important to identify an amino acid that could be used as a probe for different applications, the photophysical properties were assessed in both an organic solvent (methanol) and water (Table 2).
(§2) 5. Photophysical Data for a-Amino Acids 13a–e
(§3) Absorption and emission data were recorded using the following instruments:
(§4) 1. UV-Vis spectra were recorded on a Perkin Elmer Lamda 25 instrument. Fluorescence spectra were recorded on a Shimadzu RF-5301PC spectrofluorophotometer. Emission data were measured using excitation and emission bandpass filters of 3 nm.
2. Both UV-Vis spectra and fluorescence spectra were recorded on a Horiba Duetta Fluorescence and Absorbance spectrometer. Absorbance spectra were recorded with an integration time of 0.05 s, and a band pass of 5 nm. Fluorescence spectra were recorded with and excitation and emission band pass of 5 nm, an integration time of 2 s, and with detector accumulations set to 1. […]

[3] = Fluorescence quantum yield (comparative method, anthracene and L-tryptophan standards) and brightness; type: physicochemical; settings: for Φ F (quantum yield): anthracene and L-tryptophan as standards, five concentrations, absorption below 0.1
Method: as §1, §2, §3, §4
2. Both UV-Vis spectra and fluorescence spectra were recorded on a Horiba Duetta Fluorescence and Absorbance spectrometer. Absorbance spectra were recorded with an integration time of 0.05 s, and a band pass of 5 nm. Fluorescence spectra were recorded with and excitation and emission band pass of 5 nm, an integration time of 2 s, and with detector accumulations set to 1.
Quantum yields were determined using a comparative method against two standards. Anthracene (Φ = 0.27, in ethanol) and ʟ-tryptophan (Φ = 0.14 in water) were used as standard references.9 The integrated fluorescence intensity of each compound was determined from the emission spectra given.
Measurements were performed at five different concentrations. Concentrations were chosen to ensure the absorption value was below 0.1 to avoid re-absorption effects. Integrated fluorescence intensity was plotted as a function of the measured absorbance and a linear fit was calculated. The resultant gradient was then used to calculate the quantum yield, using the equation below: […]
Subscript ST signifies the quantities associated with the quantum yield standard. Subscript X signifies the quantities associated with the novel compound. GradX is the determined gradient associated with the novel compound. GradST is the determined gradient associated with quantum yield standard. η is the refractive index of the solvent used in the fluorescence measurements. η = 1.333 for water, 1.361 for ethanol and 1.331 for methanol.

[4] = Solvatochromism of 13c–13e (emission in various solvents); type: physicochemical; settings: emission in solvents of different polarity
Method: Measurements were performed at five different concentrations. […] Integrated fluorescence intensity was plotted as a function of the measured absorbance and a linear fit was calculated. […]
Subscript ST signifies the quantities associated with the quantum yield standard. Subscript X signifies the quantities associated with the novel compound. […]

[5] = parameters: method as in PMID 30957824; settings: cited from earlier work
Text: In combination with fluorescent spectroscopy, α-amino acids have also been used for molecular imaging, providing a method to study and visualise cellular processes in real time.[3] […] Furthermore, their occurrence at multiple sites within a protein can complicate spectroscopic analysis. To overcome these issues, many studies utilise extrinsic fluorescent labels.[4] However, these are typically large chromo ...

[6] = Circular dichroism spectroscopy of modified TrpZip1 peptide; type: physicochemical
Method: Following successful preparation of the carbazole α-amino acids, these were investigated as structural mimics of tryptophan. The effect of substituting amino acid 13e for a tryptophan residue in a well-characterised designed peptide was studied. The beta hairpin TrpZip1 was chosen as a model of beta structure.[21] An Fmoc-derivative of amino acid 13e was prepared under standard conditions and incorporated into the peptide using SPPS protocols. The resulting peptide, 14 (Table 1) was purified by reverse phase HPLC and characterised using high resolution electrospray ionisation mass spectrometry.

| Molecule | ε (molar attenuation coefficient) ([2]; MeOH) | λ Abs ([2]; MeOH) | λ Em ([2]; MeOH) | λ Em (second wavelength) ([2]; MeOH) | ε (molar attenuation coefficient) ([2]; Water) | λ Abs ([2]; Water) | λ Em ([2]; Water) | Brightness ([3]; MeOH) | Φ F (quantum yield) ([3]; MeOH) | Brightness ([3]; Water) | Φ F (quantum yield) ([3]; Water) | other results |
| --- | --- | --- | --- | --- | --- | --- | --- | --- | --- | --- | --- | --- |
| c1ccc2cc3ccccc3cc2c1 [Anthracene] | – | – | – | – | – | – | – | – | – | – | – | quantum yield of standard [1]: 0.27 |
| Cl.N[C@@H](Cc1ccc2[nH]c3ccccc3c2c1)C(=O)O [amino acid 13a, (2S)-2-Amino-3-(9H-carbazol-3’-yl)propanoic acid hydrochloride] | 16 500 cm^−1 M^−1 | 342 nm | 350 nm | 366 nm | 8800 cm⁻¹ M⁻¹ | 341 nm | 352 nm | 5120 cm⁻¹ M⁻¹ | 0.31 | 2460 cm⁻¹ M⁻¹ | 0.28 | λ Em (second wavelength) ([2]; Water): 366 nm |
| COc1ccc2c(c1)[nH]c1ccc(C[C@H](N)C(=O)O)cc12.Cl [amino acid 13b, (2S)-2-Amino-3-(7-methoxy-9H-carbazol-3’-yl)propanoic acid hydrochloride] | 12 700 cm^−1 M^−1 | 329 nm | 354 nm | – | 12 100 cm^−1 M^−1 | 331 nm | 357 nm | 4450 cm⁻¹ M⁻¹ | 0.35 | 5200 cm⁻¹ M⁻¹ | 0.43 | – |
| Cl.N[C@@H](Cc1ccc2[nH]c3ccc4ccccc4c3c2c1)C(=O)O [amino acid 13c, (2S)-2-Amino-3-(7H-benzo[c]carbazol-10-yl)propanoic acid hydrochloride] | 16 100 cm^−1 M^−1 | 351 nm | 371 nm | 388 nm | 10 900 cm^−1 M^−1 | – | 377 nm | 12 240 cm^−1 M^−1 | 0.76 | 6430 cm⁻¹ M⁻¹ | 0.59 | λ Em (second wavelength) ([2]; Water): 390 nm; solvatochromism [4]: minimal solvatochromism |
| Cl.N[C@@H](Cc1ccc2[nH]c3cc(C(F)(F)F)ccc3c2c1)C(=O)O [amino acid 13e, (2S)-2-amino-3-(7-trifluoromethyl-9H-carbazol-3’-yl)propanoic acid hydrochloride] | 11 600 cm^−1 M^−1 | – | 365 nm | 378 nm | 14 000 cm^−1 M^−1 | 348 nm | 380 nm | 700 cm⁻¹ M⁻¹ | 0.06 | 3360 cm⁻¹ M⁻¹ | 0.24 | increase in brightness in water ([3]; water relative to methanol): ~5 fold; ε and quantum yield in water ([3]; water relative to methanol): enhanced in water; solvatochromism [4]: minimal solvatochromism |
| N#Cc1cccc2[nH]cc(C[C@H](N)C(=O)O)c12 [compound 3, L-4-cyanotryptophan] | – | – | – | – | – | – | – | – | – | – | – | fluorescence lifetime [5]: long fluorescence lifetime |
| peptide 14: TrpZip1 modified with amino acid 13e (SWTWEGNK-{13e-Thr-Trp-Lys-NH2}; reading uncertain) | – | – | – | – | – | – | – | – | – | – | – | secondary structure ([6]; CD, carbazole amino acid 13e replacing tryptophan in TrpZip1): preserved the original secondary structure; CD maximum ([6]; circular dichroism): 228 nm; CD minimum ([6]; circular dichroism): 214 nm; near-UV CD signal ([6]; circular dichroism, indicative of ordered aromatic side chains): 280–310 nm |
